pEC50, pIC50: −log10 of the molar value.
Columns and labels:
[1] = Inhibitory concentration against Protein farnesyltransferase of Trypanosoma cruzi
[2] = test system: Trypanosoma cruzi; test: Inhibition of Trypanosoma cruzi growth; type: functional; conditions: read-out: ED50 (the source's name)

Molecule Cn1cncc1[C@@](N)(c1ccc(Cl)cc1)c1ccc2c(c1)c(-c1cccc(Cl)c1)cc(=O)n2C [TIPIFARNIB] has a pIC50 [1] of ~7.12 and a pEC50 [2] of 8.40.

Source: ChEMBL document CHEMBL1141155, “The protein farnesyltransferase inhibitor Tipifarnib as a new lead for the development of drugs against Chagas disease” (J Med Chem, 2005)
